In the assay the target is T1, farnesyl transferase (Ftase) (Homo sapiens, UniProt P49354+P49356).
T1 construct: This enzyme was partially purified from human THP1 cells; endogenous in cells; host or cells: human THP1 cells (enzyme partially purified)
Kind of assay: Scintillation proximity assay (SPA) test for farnesyl transferase inhibition. Format: biochemical. The note with it: Ftase partially purified from human THP1 cells; biotinylated B lamin peptide (BLB) 0.1 μM, 3HFPP 0.12 μM; 37° C., 60 minutes. In general terms: Scintillation proximity formats need no separation of bound from free tracer.

Structures are written as SMILES. Starred links: 1 amine or outer side, 2 acyl side, 3 side chain; linkers in the order of their positions; H or OH if unused. Positions of bridges follow the written chain, without caps; N, C: chain ends. Non-standard residues stand in square brackets, D forms with d. Residues, ends and D or L forms follow the SMILES beside them. *: point of attachment. Trp(5-OH) = N[CH](Cc1c[nH]c2ccc(O)cc12)C(=O)O; Propanoyl(3-cHex) = O=C(CCC1CCCCC1)*; Hpg = N[CH](C(=O)O)c1ccc(O)cc1; NMeF = CN[CH](Cc1ccccc1)C(=O)O; X1 = CC1CC1(N[*:1])C(=O)[*:2]; Ac3c = NC1(C(=O)O)CC1

Experimental: The principle of SPA (scintillation proximity assay) technology is applied to assaying the enzymic activity of farnesyl transferase. According to this method, farnesyl transferase inhibitory activity is determined by the quantity of (^3 H)-farnesyl which is transferred from (^3 H)-farnesyl pyrophosphate ((^3 H) FPP) to a biotinylated acceptor substrate.
The acceptor substrate, which is biotinylated, is a peptide of 11 amino acids corresponding to the terminal sequence of B lamin (BLB). The donor substrate, farnesyl pyrophosphate, is labelled with tritrium (^3 HFPP). […] The radio-labelled peptide excites the beads, which then emit light which is quantified in a solid-liquid scintillation counter (Topcount®, Packard).
The SPA reaction is started by adding 40 μl of Ftase (2 μg) to a microtitre plate which contains 20 μl of BLB (0.1 μM), 20 μl of ^3 HFPP (0.12 μM) and 20 μl of assay buffer 50 mM Hepes, pH 7.5, 5 mM MgCl2, 5 mM DTT, 20 mM KCl, 0.01% triton X100 (control) or 20 μl of sample diluted in assay buffer (screening). The plate is incubated at 37° C. for 60 minutes and the reaction is stopped by adding 150 μl of stopping reagent containing the SPA beads. The plate is sealed with an adhesive film, left at ambient temperature for 30 minutes in order to reach equilibrium, and then counted in the Topcount counter. […] The IC50 values of the compounds are calculated by non-linear regression.

The IC50 is the concentration needed to halve the response being measured. Higher therefore signals lower potency. Consider `CC1OC(=O)C2(CC2)NC(=O)C(c2ccc(O)cc2)NC(=O)C(Cc2c[nH]c3ccc(O)cc23)NC(=O)C(CCC(=O)O)NC(=O)C(Cc2ccccc2)N(C)C(=O)C1NC(=O)CCC1CCCCC1` (stereo not drawn) [Peptide 1] ({Propanoyl(3-cHex)}-T[NMeF]E[Trp(5-OH)][Hpg][Ac3c]; ester 1-C; configuration not given here), for which 626 nM corresponded to half-maximal inhibition (IC50). Consider `CC1OC(=O)C2(CC2C)NC(=O)C(c2ccc(O)cc2)NC(=O)C(Cc2c[nH]c3ccc(O)cc23)NC(=O)C(CCC(=O)O)NC(=O)C(Cc2ccccc2)N(C)C(=O)C1NC(=O)CCC1CCCCC1` (stereo not drawn) [Peptide 2] ({Propanoyl(3-cHex)}-T[NMeF]E[Trp(5-OH)][Hpg][X1]; ester 1-C; configuration not given here), for which the IC50 is 538 nM. As for `COC(=O)CCC1NC(=O)C(Cc2ccccc2)N(C)C(=O)C(NC(=O)CCC2CCCCC2)C(C)OC(=O)C2(CC2C)NC(=O)C(c2ccc(O)cc2)NC(=O)C(Cc2c[nH]c3ccc(O)cc23)NC1=O` (stereo not drawn) [Peptide 3] ({Propanoyl(3-cHex)}-T[NMeF]E(OMe)[Trp(5-OH)][Hpg][X1]; ester 1-C; configuration not given here), the IC50 was determined as 1300 nM.

The values above are taken from US5734013A, “Peptides having farnesyl transferase inhibiting properties and strain of genus streptomyces for producing same” (Rhone-Poulenc Rorer S.A., priority 1994, dated 1998).
